Like-named read-outs stand apart in the source and are kept apart here.
Legend:
anesthetized rabbits = test: Ischemia-induced ST segment elevation in anesthetized rabbits; type: in vivo; details: rabbit; for area under curve (AUC) for the ST segment height reduced (vs. control): 15 min LAD ischemia, iv bolus
Protocol: This study was undertaken to determine the anti-ischemic effects of compounds of the present invention in an in vivo rabbit model.
Female New Zealand rabbits (3.0-4.0 kg) were purchased from Western Oregon Rabbitry. Animals were housed on a 12-h light and dark cycle and received standard laboratory chow and water. All experiments were performed in accordance with the Guide for the Care and Use of Laboratory Animals published by The National Research Council and with the experimental protocol approved by the Institutional Animal Care Committee of Gilead Sciences, Inc.
Rabbits were anesthetized with ketamine (35 mg/kg) and xylazine (5 mg/kg) intramuscular injection (im). A tracheotomy was performed and the trachea was intubated with an endotracheal tube. The animal was ventilated with room air supplemented with oxygen using a pressure control animal ventilator (Kent Scientific Corp., Torrington, Conn.) at a respiratory rate of 40 strokes/min and peak inspiration pressure of 10 mmH2O, which was adjusted to keep blood gases and pH within the physiological range (iSTAT clinic analyzer, Heska Corp.; Waukesha, Wis.). The left femoral artery was cannulated for the measurement of blood pressure (BP). Blood samples were also withdrawn from femoral artery. The right external jugular vein was cannulated for drug/vehicle administration. Needle electrodes were inserted subcutaneously into the limbs for recording of the surface electrocardiogram (ECG). The heart was exposed via an incision in the 4th intercostal space (4th and/or 5th ribs were cut for a clear surgical vision). The chest was opened and a pericardial cradle was formed using 4 retractors. A coronary artery occluder, comprised of a snare made of 5 cm PE-10 tubing with a 6-0 Prolene polypropylene suture in it, was placed loosely around the left anterior descending artery (LAD) at its origin. Two unipolar electrodes, made with teflon coated silver wire attached to a small patch of filter paper, were attached on the surface of the ischemic and normal regions of the left ventricle to record epicardial electrocardiogram. Reference electrodes were placed in the open incision of the neck. The body temperature of the animal was monitored via a rectal thermometer and maintained at 37-40° C. by adjusting the surface temperature of the surgical table. Regional ischemia (15 min) was induced by ligating the LAD followed by 15 min of reperfusion caused by releasing the ligation. The heart was excised at the end of the experiment and the LAD was re-ligated. The ischemic area was visualized by perfusing the heart with 1% Evans blue in saline and calculated as a percentage of total ventricular weight. Rabbits with ischemic area less than 10% or larger than 25% were excluded from the analysis. […]

hNav1.1 = target: T1, hNav1.1 (Homo sapiens, UniProt P35498); test: Nav1.1 use-dependent block, whole-cell voltage clamp; type: cell-based; details: use-dependent block 10 Hz, read-out: NAv1.1*-CHAN TEST-UDB-10 HZ-
T1 construct: expressed in transfected cells; host or cells: HEK293, transient transfection (α1:β1:β2 = 10:1:1)

[1] = target: wild-type human cardiac sodium channel, hNav1.5 (peak INa) (Homo sapiens, UniProt Q14524); test: Peak INa screening assay (tonic and use-dependent block); type: cell-based
wild-type human cardiac sodium channel, hNav1.5 (peak INa), sequence (Q14524 whole entry): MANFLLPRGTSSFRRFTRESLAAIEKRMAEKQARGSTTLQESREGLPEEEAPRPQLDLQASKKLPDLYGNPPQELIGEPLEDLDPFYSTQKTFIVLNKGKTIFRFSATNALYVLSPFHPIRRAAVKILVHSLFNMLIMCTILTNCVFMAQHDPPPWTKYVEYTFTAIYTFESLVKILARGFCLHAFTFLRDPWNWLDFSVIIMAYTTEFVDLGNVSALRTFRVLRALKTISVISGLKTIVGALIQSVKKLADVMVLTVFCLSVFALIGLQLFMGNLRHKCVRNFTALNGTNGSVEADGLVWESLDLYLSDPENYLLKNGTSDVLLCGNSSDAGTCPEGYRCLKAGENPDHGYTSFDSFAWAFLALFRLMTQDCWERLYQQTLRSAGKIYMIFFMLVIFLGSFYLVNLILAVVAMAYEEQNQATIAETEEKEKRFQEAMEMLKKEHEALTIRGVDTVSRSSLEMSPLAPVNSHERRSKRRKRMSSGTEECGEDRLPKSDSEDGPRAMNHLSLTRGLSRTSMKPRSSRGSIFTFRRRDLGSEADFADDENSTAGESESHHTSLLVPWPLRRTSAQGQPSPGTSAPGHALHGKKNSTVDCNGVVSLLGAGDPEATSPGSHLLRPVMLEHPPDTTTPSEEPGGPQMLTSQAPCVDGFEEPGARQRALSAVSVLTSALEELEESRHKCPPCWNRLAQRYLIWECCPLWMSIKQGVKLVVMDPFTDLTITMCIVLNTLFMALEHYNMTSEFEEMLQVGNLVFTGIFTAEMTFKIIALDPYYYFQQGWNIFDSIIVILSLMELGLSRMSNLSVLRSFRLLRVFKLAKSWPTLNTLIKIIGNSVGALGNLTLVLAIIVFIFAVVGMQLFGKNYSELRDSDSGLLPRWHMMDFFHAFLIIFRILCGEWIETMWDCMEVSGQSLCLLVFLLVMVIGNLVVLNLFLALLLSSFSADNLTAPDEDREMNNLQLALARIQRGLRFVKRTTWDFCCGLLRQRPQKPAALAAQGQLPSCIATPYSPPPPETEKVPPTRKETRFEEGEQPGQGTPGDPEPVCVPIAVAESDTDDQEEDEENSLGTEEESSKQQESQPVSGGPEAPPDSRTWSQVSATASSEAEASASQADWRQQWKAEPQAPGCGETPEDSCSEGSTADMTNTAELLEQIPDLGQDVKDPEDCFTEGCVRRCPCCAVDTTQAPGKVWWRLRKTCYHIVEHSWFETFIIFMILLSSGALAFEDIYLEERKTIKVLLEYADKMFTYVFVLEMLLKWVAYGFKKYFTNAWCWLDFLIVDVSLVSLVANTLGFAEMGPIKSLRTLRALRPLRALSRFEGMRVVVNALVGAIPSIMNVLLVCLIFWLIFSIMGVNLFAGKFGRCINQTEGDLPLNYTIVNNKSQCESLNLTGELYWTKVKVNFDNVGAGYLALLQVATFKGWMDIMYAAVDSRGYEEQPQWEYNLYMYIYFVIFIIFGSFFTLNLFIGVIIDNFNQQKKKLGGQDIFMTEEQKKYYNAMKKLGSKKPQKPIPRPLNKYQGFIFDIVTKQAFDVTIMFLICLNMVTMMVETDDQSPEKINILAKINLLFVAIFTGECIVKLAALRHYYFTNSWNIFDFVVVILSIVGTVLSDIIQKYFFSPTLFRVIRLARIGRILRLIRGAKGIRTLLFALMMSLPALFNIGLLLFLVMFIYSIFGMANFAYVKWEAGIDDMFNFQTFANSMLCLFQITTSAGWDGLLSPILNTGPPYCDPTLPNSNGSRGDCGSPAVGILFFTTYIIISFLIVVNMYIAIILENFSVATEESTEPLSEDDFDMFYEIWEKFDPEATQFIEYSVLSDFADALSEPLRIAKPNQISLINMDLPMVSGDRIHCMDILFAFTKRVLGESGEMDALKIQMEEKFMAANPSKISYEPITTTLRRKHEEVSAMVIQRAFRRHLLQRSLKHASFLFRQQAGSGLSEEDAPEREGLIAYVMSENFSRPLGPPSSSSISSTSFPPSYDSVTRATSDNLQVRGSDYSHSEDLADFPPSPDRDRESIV
Procedure, shortened: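 Whole-cell automated patch clamp, HEK293 stably expressing hNav1.5 alpha without beta subunits, 23-25° C, holding −100 mV; bath Na⁺ reduced to 20 mM, CsF-based intracellular pH 7.4. Test compound 1 μM; tonic block at 0.1 Hz, use-dependent block at 3 Hz, % peak block after rundown correction.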

- inhibition at 1 µM (hNav1.1): 19.5%
SMILES: O=c1c2cc(-c3ccc(OC(F)(F)F)cc3)ccc2nnn1Cc1noc(C2CC2)n1 [II-14, 3-((5-cyclopropyl-1,2,4-oxadiazol-3-yl)methyl)-6-(4-(trifluoromethoxy)phenyl)benzo[d][1,2,3]triazin-4(3H)-one]
- area under curve (AUC) for the ST segment height reduced (vs. control) (anesthetized rabbits; 0.3 μM plasma concentration): 19%
- area under curve (AUC) for the ST segment height reduced (vs. control) (anesthetized rabbits; 0.7 μM plasma concentration): 75%
- effect on blood pressure (BP), heart rate (HR) and ECG intervals prior to the ischemia (anesthetized rabbits; at the plasma concentration levels studied): no significant effect
- ischemia-induced ST elevation (anesthetized rabbits; iv bolus 0.1, 0.2 and 0.4 mg/kg): dose-dependently prevented the ischemia-induced ST elevation
- inhibition at 1 µM ([1]; % inhibition at 1 μM, tonic block, read-out: NAv1.5*-PEAK-TB-): 7%
- inhibition at 1 µM ([1]; % inhibition at 1 μM, use-dependent block 3 Hz, read-out: NAv1.5*-PEAK-UDB-3 HZ-): 1%
- inhibition at 1 µM ([1]; tonic block of peak INa, 0.1 Hz, 1 μM, read-out: Peak TB 1 μM): 7%
- inhibition at 1 µM ([1]; use-dependent block of peak INa, 3 Hz, 1 μM, read-out: Peak UDB 1 μM): 1%
